Assay results: patent publication US8022103B2, “Ester prodrugs of prostratin and related phorbol compounds” (Salvia Sciences, Inc., priority 2005, dated 2011)
In brackets after ≈: the same amount, converted by molar mass. Where two headings read alike, the source gives them in different places.

Experiments:
HIV-1Ba-L = assay: Anti-HIV efficacy in human monocyte/macrophages (p24 ELISA); format: cell-based
Experimental: SA-101A and SA-101B were tested for antiviral activity against HIV-1 virus in peripheral blood monocytes/macrophages. Monocytes/macrophages were derived from normal HIV-1 negative donors, and cultured under conditions which promote cell survival and HIV replication. Fresh human blood was obtained commercially from Biological Specialty Corporation (Colmar, Pa.). The low passage, monocytropic, clinical isolate HIV-1Ba-L (Subtype B, R5) was obtained from the NIAID AIDS Research and Reference Reagent Program. A pre-titered aliquot of HIV 1Ba-L was removed from the freezer (−80° C.) and thawed rapidly to room temperature in a biological safety cabinet immediately before use. Phytohemagglutinin (PHA-P) was obtained from Sigma (St. Louis, Mo.) and recombinant IL-2 was obtained from R&D Systems Inc. (Minneapolis, Minn.).
Compound preparation: Compounds SA-101A and SA-101B were in powder form and solubilized in DMSO prior to use. AZT (Sigma), solubilized in sterile dH2O, was used as the positive antiviral control. The compounds were tested at a 100 μg/mL high-test concentration; AZT was tested at a 1,000 ηM high-test concentration. Compound SA-101B was tested in the presence of 40% human AB serum.
Monocyte isolation and culture. Peripheral blood monocytes were isolated from screened donors sero-negative for HIV and HBV. Cells were pelleted by low speed centrifugation and re-suspended in PBS to remove contaminating platelets. The leukophoresed blood was then diluted with Dulbecco's phosphate buffered saline (PBS) and layered over of Lymphocyte Separation Medium (LSM; Cellgro® by Mediatech, Inc.; density 1.078+/−0.002 g/ml; Cat. # 85-072-CL) in a 50 mL centrifuge tube and then centrifuged. Banded PBMCs were gently aspirated from the interface and subsequently washed with PBS by low speed centrifugation. The cells were diluted to 4×10^6 cells per mL in DMEM without phenol red supplemented with 10% heat inactivated human pooled AB serum, 2 mM L-glutamine, 100 U/mL penicillin and 100 μg/mL streptomycin. Monocytes/macrophages were allowed to adhere to the interior 60 wells (100 μL/well) of a 96 well flat bottomed plate for 2 to 18 hours at 37° C., 5% CO2. The exterior wells were filled with 200 μL of sterile DPBS to serve as a humidity barrier. Following adherence of cells, the cultures were washed with sterile DPBS to remove non-adherent cells (lymphocytes and contaminating RBCs). […]
Anti-HIV efficacy evaluation in human monocyte/macrophages. […] At assay termination, virus replication was measured by collecting cell-free supernatant samples, which were analyzed for HIV p24 antigen content using a commercially available p24 ELISA assay (Coulter). […]

CEM-SS cells = assay: MTS cell viability in CEM-SS cells (cytotoxicity); format: cell-based; conditions: for TC50: MTS; for Cytotoxicity: at the concentrations evaluated
Experimental: Cell Preparation. CEM-SS cells were passaged in T-75 flasks prior to use in the antiviral assay. On the day preceding the assay, the cells were split 1:2 to assure they were in an exponential growth phase at the time of infection. Total cell and viability quantification was performed using a hemacytometer and trypan blue exclusion. Cell viability was greater than 95% for the cells to be utilized in the assay. The cells were resuspended at 5×10^4 cells/ml in tissue culture medium and added to the drug-containing microliter plates in a volume of 50 μl.
MTS Staining for Cell Viability. At assay termination, the assay plates were stained with the soluble tetrazolium-based dye MTS (Cell Titer Reagent Promega) to determine cell viability and quantify compound toxicity. At termination of the assay, 20 μL of MTS reagent was added per well. The microtiter plates were then incubated 4 6 hrs at 37° C. Adhesive plate sealers were used in place of the lids, the sealed plate was inverted several times to mix the soluble formazan product and the plate was read spectrophotometrically at 490/650 ηm with a Molecular Devices Vmax plate reader.
Data Analysis. Using an in-house computer program, IC50 (50%, inhibition of virus replication), IC95 (95%, inhibition of virus replication), TC50 (50% reduction in cell viability), TC95 (95% reduction in cell viability), and a therapeutic index (TI=TC50/IC50) were determined.

Hepatitis B Virus = assay: HepG2 2.2.15 antiviral assay (HBV DNA, TaqMan PCR); format: cell-based, Hepatitis B (HBV); conditions: HepG2 2.2.15 cells
Experimental: Compounds SA-101A and SA-101B were evaluated for effect on Hepatitis B Virus replications using a cell culture based HBV replication system.
Compound preparation. The compounds were prepared in powder form (˜1 mg) and solubilized in DMSO prior to use. Compound 3TC was used as positive antiviral control.
HepG2 2.2.15 Antiviral Assay. The assay developed is similar to that described ion the literature (Korba et al., 1991, Antiviral Res. 15: 217-228; Korba et al., 1992, Antiviral Res. 19: 55-70) with the exception that viral DNA detection and quantification have been improved and simplified (Buckwold et al., 2004, Antiviral Res. 61(1): 57-62). Briefly, HepG2-2.2.15 cells are plated in 96-well microtiter plates. […] Six days following the initial administration of the test compound, the cell culture supernatant is collected, treated with pronase and DNAse and then used in a real-time quantitative TaqMan PCR assay. The PCR-amplified HBV DNA is detected in real-time by monitoring increases in fluorescence signals that result from the exonucleolytic degradation of a quenched fluorescent probe molecule that hybridizes to the amplified HBV DNA. […] Antiviral activity is calculated from the reduction in HBV DNA levels (IC50). […] The therapeutic index (TI) is calculated as TC50/IC50.

| Compound | IC50 (HIV-1Ba-L; Human immunodeficiency virus 1, Macrophage, read-out: IC50) [µg/mL] | IC90 (HIV-1Ba-L; Human immunodeficiency virus 1, Macrophage, read-out: IC90) [µg/mL] | TC50 (CEM-SS cells) [µg/mL] | Cytotoxicity (CEM-SS cells) | EC50 (inhibition of HBV) (Hepatitis B Virus) | IC50 (HIV-1Ba-L; 40% Human AB serum) [µg/mL] | IC90 (HIV-1Ba-L; 40% Human AB serum) [µg/mL] |
| --- | --- | --- | --- | --- | --- | --- | --- |
| CC(=O)O[C@@]12C[C@@H](C)[C@@]3(O)[C@@H](C=C(CO)C[C@]4(O)C(=O)C(C)=C[C@@H]34)[C@@H]1C2(C)C [SA-101A, 12-deoxyphorbol 13-acetate] | 0.11 (≈ 0.282 µM) | 0.28 (≈ 0.717 µM) | >0.50 | no cytotoxicity | did not achieve EC50 values |  |  |
| CC(=O)OC12CC(C)C3(O)C(C=C(COC(=O)CCC(=O)O)CC4(O)C(=O)C(C)=CC43)C1C2(C)C (stereo not shown) [SA-101B, Prostratin Succinate] |  |  | >0.50 | no cytotoxicity | did not achieve EC50 values | 0.28 | 7.29 |
